Measurements taken from publication PMC9866191, “Novel 9-Benzylaminoacridine Derivatives as Dual Inhibitors of Phosphodiesterase 5 and Topoisomerase II for the Treatment of Colon Cancer” (Molecules, 2023).

How the values were obtained:
Test in all cases: NCI-60 one-dose screen
Type in all cases: cell-based
786-0 = settings: Homo sapiens; 786-0, Renal Cancer panel; single dose 10^−5 M; read-out: Growth inhibition %
A498 = settings: Homo sapiens; A498, Renal Cancer panel; single dose 10^−5 M; read-out: Growth inhibition %
COLO 205 = settings: Homo sapiens; COLO 205, Colon Cancer panel; single dose 10^−5 M; read-out: Growth inhibition %
EKVX = settings: Homo sapiens, Non-small cell lung panel, single dose 10^−5 M, read-out: Growth inhibition %
HCC-2998 = settings: Homo sapiens; HCC-2998, Colon Cancer panel; single dose 10^−5 M; read-out: Growth inhibition %
HCT-116 = settings: Homo sapiens, read-out: Growth inhibition %
HCT-15 = settings: Homo sapiens; HCT-15, Colon Cancer panel; single dose 10^−5 M; read-out: Growth inhibition %
HL-60(TB) = settings: Homo sapiens, Leukemia panel, single dose 10^−5 M, read-out: Growth inhibition %
HOP-62 = settings: Homo sapiens; HOP-62, Non-small cell lung panel; single dose 10^−5 M; read-out: Growth inhibition %
HOP-92 = settings: Homo sapiens; HOP-92, Non-small cell lung panel; single dose 10^−5 M; read-out: Growth inhibition %
HS 578T = settings: Homo sapiens, Breast Cancer panel, single dose 10^−5 M, read-out: Growth inhibition %
M14 = settings: Homo sapiens; M14, Melanoma panel; single dose 10^−5 M; read-out: Growth inhibition %
MALME-3M = settings: Homo sapiens, Melanoma panel, single dose 10^−5 M, read-out: Growth inhibition %
MCF7 = settings: Homo sapiens; MCF7, Breast Cancer panel; single dose 10^−5 M; read-out: Growth inhibition %
MDA-MB-435 = settings: Homo sapiens; MDA-MB-435, Melanoma panel; single dose 10^−5 M; read-out: Growth inhibition %
MOLT-4 = settings: Homo sapiens; MOLT-4, Leukemia panel; single dose 10^−5 M; read-out: Growth inhibition %
NCI-H23 = settings: Homo sapiens; NCI-H23, Non-small cell lung panel; single dose 10^−5 M; read-out: Growth inhibition %
NCI-H522 = settings: Homo sapiens; NCI-H522, Non-small cell lung panel; single dose 10^−5 M; read-out: Growth inhibition %
NCI/ADR-RES = settings: Homo sapiens, Ovarian Cancer panel, single dose 10^−5 M, read-out: Growth inhibition %
OVCAR-3 = settings: Homo sapiens; OVCAR-3, Ovarian Cancer panel; single dose 10^−5 M; read-out: Growth inhibition %
OVCAR-4 = settings: Homo sapiens; OVCAR-4, Ovarian Cancer panel; single dose 10^−5 M; read-out: Growth inhibition %
OVCAR-5 = settings: Homo sapiens; OVCAR-5, Ovarian Cancer panel; single dose 10^−5 M; read-out: Growth inhibition %
OVCAR-8 = settings: Homo sapiens; OVCAR-8, Ovarian Cancer panel; single dose 10^−5 M; read-out: Growth inhibition %
SF-295 = settings: Homo sapiens; SF-295, CNS Cancer panel; single dose 10^−5 M; read-out: Growth inhibition %
SK-MEL-5 = settings: Homo sapiens; SK-MEL-5, Melanoma panel; single dose 10^−5 M; read-out: Growth inhibition %
SN12C = settings: Homo sapiens, Renal Cancer panel, single dose 10^−5 M, read-out: Growth inhibition %
SR = settings: Homo sapiens, Leukemia panel, single dose 10^−5 M, read-out: Growth inhibition %
T-47D = settings: Homo sapiens, T47D, Breast Cancer panel, single dose 10^−5 M, read-out: Growth inhibition %
TK-10 = settings: Homo sapiens; TK-10, Renal Cancer panel; single dose 10^−5 M; read-out: Growth inhibition %
UACC-257 = settings: Homo sapiens; UACC-257, Melanoma panel; single dose 10^−5 M; read-out: Growth inhibition %
UACC-62 = settings: Homo sapiens; UACC-62, Melanoma panel; single dose 10^−5 M; read-out: Growth inhibition %
UO-31 = settings: Homo sapiens; UO-31, Renal Cancer panel; single dose 10^−5 M; read-out: Growth inhibition %

| SMILES | inhibition at 10 µM (786-0) [%] | inhibition at 10 µM (A498) [%] | inhibition at 10 µM (COLO 205) [%] | inhibition at 10 µM (EKVX) [%] | inhibition at 10 µM (HCC-2998) [%] | inhibition at 10 µM (HCT-116) [%] | inhibition at 10 µM (HCT-15) [%] | inhibition at 10 µM (HL-60(TB)) [%] | inhibition at 10 µM (HOP-62) [%] | inhibition at 10 µM (HOP-92) [%] | inhibition at 10 µM (HS 578T) [%] | inhibition at 10 µM (M14) [%] | inhibition at 10 µM (MALME-3M) [%] | inhibition at 10 µM (MCF7) [%] | inhibition at 10 µM (MDA-MB-435) [%] | inhibition at 10 µM (MOLT-4) [%] | inhibition at 10 µM (NCI-H23) [%] | inhibition at 10 µM (NCI-H522) [%] | inhibition at 10 µM (NCI/ADR-RES) [%] | inhibition at 10 µM (OVCAR-3) [%] | also measured |
| --- | --- | --- | --- | --- | --- | --- | --- | --- | --- | --- | --- | --- | --- | --- | --- | --- | --- | --- | --- | --- | --- |
| c1csc(-c2ccc(CNc3c4ccccc4nc4ccccc34)cc2)c1 [Compound 24, Acridin-9-yl-(4-thiophen-2-yl-benzyl)-amine] | 70 | 102 | 94.9 | 41 | 187 | 183 | 166 | 157 | 45.4 | 102 | 39.4 | 174 | 182 | 163 | 183 | 98 | 61.8 | 71.1 | 88.8 | 90.5 | inhibition at 10 µM (OVCAR-4): 84.7%; inhibition at 10 µM (OVCAR-5): 32.9%; inhibition at 10 µM (OVCAR-8): 44.4%; inhibition at 10 µM (SF-295): 84.2%; inhibition at 10 µM (SK-MEL-5): 191%; inhibition at 10 µM (SN12C): 36.8%; inhibition at 10 µM (SR): 144%; inhibition at 10 µM (T-47D): 28.1%; inhibition at 10 µM (TK-10): 34.9%; inhibition at 10 µM (UACC-257): 137%; inhibition at 10 µM (UACC-62): 35.5%; inhibition at 10 µM (UO-31): 72% |
| COc1ccc2nc3ccccc3c(NCc3ccccc3)c2c1 [Compound 25, Benzyl-(2-methoxyacridin-9-yl)-amine] | 77.7 | 114 | 119 | 73.1 | 136 | 85.2 | 86.9 | 91.8 | 66.4 | 113 | 74.8 | 74 | 77.5 | 95.7 | 66.2 | 92 | 78.5 | 65.4 | 81.7 | 59 | inhibition at 10 µM (OVCAR-4): 59.2%; inhibition at 10 µM (OVCAR-5): 71%; inhibition at 10 µM (OVCAR-8): 71.8%; inhibition at 10 µM (SF-295): 80.3%; inhibition at 10 µM (SK-MEL-5): 81.2%; inhibition at 10 µM (SN12C): 77.5%; inhibition at 10 µM (SR): 95.7%; inhibition at 10 µM (T-47D): 64.7%; inhibition at 10 µM (TK-10): 61.3%; inhibition at 10 µM (UACC-257): 72.9%; inhibition at 10 µM (UACC-62): 54.1%; inhibition at 10 µM (UO-31): 86.2% |
| COc1ccc2nc3ccccc3c(NCc3ccc(F)cc3)c2c1 [Compound 28, (4-Fluorobenzyl)-(2-methoxyacridin-9-yl)-amine] | 93.2 | 108 | 154 | 77.6 | 178 | 91.1 | 95.9 | 135 | 71.8 | 111 | 73.9 | 84.7 | 105 | 128 | 76.1 | 99.5 | 86 | 81.8 | 84.9 | 68.8 | inhibition at 10 µM (OVCAR-4): 86.4%; inhibition at 10 µM (OVCAR-5): 82%; inhibition at 10 µM (OVCAR-8): 80.5%; inhibition at 10 µM (SF-295): 85.6%; inhibition at 10 µM (SK-MEL-5): 107%; inhibition at 10 µM (SN12C): 83%; inhibition at 10 µM (SR): 101%; inhibition at 10 µM (T-47D): 63.5%; inhibition at 10 µM (TK-10): 62.2%; inhibition at 10 µM (UACC-257): 111%; inhibition at 10 µM (UACC-62): 60.9%; inhibition at 10 µM (UO-31): 108% |
